Here are results for two molecules from patent US12391768B2, “Antibodies to ticagrelor and methods of use” (MEDIMMUNE LIMITED, priority 2014, dated 2025).

One data set addresses TICA0010 Fab. Kind of data set: HTRF competition binding selectivity assay, TICA0010 His-Fab. Set-up: species or system human. As to conditions: first series (Table 2), not DMSO normalised; read-out: IC50 (uM) for inhibition of biotinylated ticagrelor binding to TICA00l0 his-Fab. Here is the method:
(§1) Total Binding control wells were set up which contained all of the assay components above except that 5 ul assay buffer was added in place of the test selectivity compound addition. Negative Binding control wells were set up which contained all of the assay components included in the Total Binding control wells except that 5ul assay buffer was added in place of the His-Fab addition. Test compound serial titrations were either ½ or ⅓ depending on the particular experiment and top final assay compound concentrations were optimized on a compound specific basis. The concentration of biotinylated ticagrelor and His-Fab was optimized on a Fab specific basis in separate experiments. For the four Fabs investigated at the end of the lead isolation phase (TICA0010, TICA0049, TICA0053 and TICA0072) the final assay reagent concentrations used are set out in Table 1 below:
(§2) For the two Fabs investigated at the end of the lead optimization phase (TICA0162 and TICA0212) the final assay reagent concentrations used were 5nM biotinylated ticagrelor and 1 nM His Fab in both cases. […] In order to enable subsequent normalization of data to correct for any such vehicle related effects parallel titrations of DMSO alone were included in most experiments in which the final assay DMSO concentrations mirrored those of the test compound serial dilutions. At the end of the set up procedure that assay was incubated for 3hrs at RT before being read on an Envision plate reader using a standard read protocol.
(§3) The negative ratio value used in the calculation of % Delta F was derived from the Negative Binding control wells. % Delta F values were then used to calculate % Specific Binding values according to the equation below: Specific Binding (%)={(Sample Delta F−Negative Binding Delta F)/(Total Binding Delta F−Negative Binding Delta F)}×100
(§4) For standard calculations of % Specific Binding Total Binding Delta F was taken from Total Binding control wells which contained all of the aforementioned components of the assay but without inclusion of any competing test compound.
(§5) In those experiments where DMSO normalization was applied DMSO normalised % Specific Binding was calculated essentially according to the equation above except that in this case Total Binding Delta F was taken from wells containing all of the components in the Total Binding control wells as well as DMSO at a concentration equivalent to that in the relevant sample well.

The target of the next data set is TICA0049 Fab. Kind of data set: HTRF competition binding selectivity assay, TICA0049 His-Fab. Further details: species or system human. The note with it: second series (Table 3), DMSO normalised; read-out: IC50 in competition binding selectivity studies, TICA0049. Here is the method:
as §1, §2, §3, §4, §5
(§6) In a second series of experiments further selectivity data was generated for TICA0049 and TICA0072 Fabs in which a subset of four of the twelve compounds listed in FIG. 4 were retested along with ticagrelor, TAM and TIM and several adenosine related compounds. Here, in a refinement to the earlier investigations in Table 2, experiments were designed in order to enable normalisation of percent specific binding values to correct for any non-specific vehicle related effects due to DMSO. Example plotted data from this second series of experiments is shown in FIG. 5A-F along with tabulated IC50 values in Table 3.

Another data set deals with TICA0053 Fab. Kind of data set: HTRF competition binding selectivity assay, TICA0053 His-Fab. Set-up: species or system human. The note with it: first series (Table 2), not DMSO normalised; read-out: IC50 (uM) for inhibition of biotinylated ticagrelor binding to TICA0053 his-Fab. The procedure: as §1, §2, §3, §4, §5
(In general: TR-FRET usually uses a lanthanide donor and a delayed reading to cut background.)

The next data set addresses TICA0072 Fab. Kind of data set: HTRF competition binding selectivity assay, TICA0072 His-Fab. Set-up: species or system human. The note with it: second series (Table 3), DMSO normalised; read-out: IC50 in competition binding selectivity studies, TICA0072. The procedure:
as §1, §2, §3, §4, §5, §6

Another data set concerns the target TICA0162 Fab. Kind of data set: HTRF competition binding selectivity assay, TICA0162 His-Fab. Further details: species or system human. As to conditions: Table 7, DMSO normalised; 5 nM biotinylated ticagrelor, 1 nM His Fab; read-out: IC50 (uM) for inhibition of biotinylated ticagrelor binding to TICA0162 Fab. Here is the method:
as §1
as §2, with “protocol. […]” for “protocol.”
as §5

In the next data set the target is TICA0212 Fab. Kind of data set: HTRF competition binding selectivity assay, TICA0212 His-Fab. Set-up: species or system human. The note with it: Table 7, DMSO normalised; 5 nM biotinylated ticagrelor, 1 nM His Fab; read-out: IC50 (uM) for inhibition of biotinylated ticagrelor binding to TICA0212 Fab. Here is the method:
as §1
For the two Fabs investigated at the end of the lead optimization phase (TICA0162 and TICA0212) the final assay reagent concentrations used were 5nM biotinylated ticagrelor and 1 nM His Fab in both cases. […] At the end of the set up procedure that assay was incubated for 3hrs at RT before being read on an Envision plate reader using a standard read protocol. […]

Data set [1] can be described thus: Total plasma concentration of ticagrelor and TAM (LC-MS/MS). The note with it: Example 12. The class given is in vivo, mice. Here is the method: Blood samples were collected in tubes with EDTA anticoagulant and centrifuged for 5 min at 10000× g at room temperature to prepare plasma. The plasma concentration of ticagrelor and TAM were determined by protein precipitation and liquid chromatography with tandem mass spectrometry (LC-MS/MS) as described in published method [Sillén H., et al., J Chromatogr B Analyt Technol Biomed Life Sci 2010; 878: 2299-306] with the following deviations. Plasma, 50 μL, was protein precipitated with 180 μl internal standard (D7-ZD6140) in acetonitrile. The liquid chromatographic system and mass spectrometer was an Acquity Ultra Performance LC coupled to a Xevo TQ-S mass spectrometer from Waters. Chromatographic separation was achieved on an Aquity UPLC® BEH C18 column (2.1×50 mm, particle size 1.7 um). Negative electrospray ionization was utilized. Eluent A was water with 10 mmol/L ammonium acetate, pH5 and eluent B was acetonitrile with 10 mmol/L ammonium acetate. Injection volume was 1 to 5 μL and the analytical gradient started with 4% B, increasing to 95% in 1.5 min, remaining until 2.3 min, before returning to initial conditions within 2.4 min followed by 0.3 min re-equilibration. No quality control samples were used in the analysis. The lower limit of quantification (LLOQ) was 0.005 μmol/L and the calibration range was 0.005 to 15.0 μM.
The total plasma concentrations of ticagrelor and TAM in presence of TICA0212/MEDI2452 were determined by adding 1% formic acid (FA: Sample, 1:5) followed by protein precipitation and LC-MS/MS as described above. Formic acid was added to the sample to facilitate dissociation of ticagrelor and TICA0212/MEDI2452.

The conditions of data set [2]: cited from earlier work.
The target of a further data set is P2Y12 (Homo sapiens, UniProt Q9H244). The note with it: cited from earlier work.
P2Y12, sequence (Q9H244 whole entry): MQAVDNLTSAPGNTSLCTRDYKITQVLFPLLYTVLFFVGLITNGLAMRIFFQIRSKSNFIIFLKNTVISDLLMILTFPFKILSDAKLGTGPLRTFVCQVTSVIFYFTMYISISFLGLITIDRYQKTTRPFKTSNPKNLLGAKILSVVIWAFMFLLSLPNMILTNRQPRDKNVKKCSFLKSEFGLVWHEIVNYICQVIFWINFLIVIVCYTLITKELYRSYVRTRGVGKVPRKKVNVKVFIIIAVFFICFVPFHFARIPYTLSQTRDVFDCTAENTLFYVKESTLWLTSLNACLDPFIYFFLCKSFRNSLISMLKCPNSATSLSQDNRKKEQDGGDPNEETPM
For data set [3], the target named is TICA0159 IgG binding to biotinylated ticagrelor. Kind of data set: Second generation HTRF epitope competition assay. Here is the method: Purified parent TICA0072 (scFv or Fab) was used as a benchmark in all experiments such that improvements in IC50 measured with optimized variants (scFv or Fab) could be expressed as fold improvements over parent TICA0072. Total Binding Control Wells contained all assay components except that 5 ul assay buffer was added in place of the purified scFv or Fab sample. Negative Binding control wells contained all of the components of the Total Binding control wells except that 5 ul of assay buffer was added in place of the TICA0072 IgG.
In both single point HTS and multipoint IC50 profiling versions of the assay. plates were incubated for 3 hrs at RT before being read on an Envision plate reader using a standard HTRF read protocol in which samples are excited at 337 nm and time resolved fluorescence emission is measured at both 620 nm and 665 nM.
Raw 665 nm and 620 nm counts were used to calculate Delta F (%) and % Specific Binding according to the equations described earlier in Assays 1 and 4, respectively. For multipoint secondary profiling experiments IC50 values were determined using Graphpad Prism software using sigmoidal dose response (variable slope) curve fitting (4 parameter logistic equation).
This assay was used only in multipoint IC50 profiling format (as opposed to HTS format) and was performed essentially identically to the method given in Assay 5 (above) for multipoint IC50 profiling of purified Fab variants in the parent TICA0072 IgG based epitope competition assay. The only difference being that TICA0159 IgG was used in place of TICA0072 IgG at the appropriate point in the assay set up but at the same 16nM final assay concentration. In all other respects this assay was performed exactly as described above in the multipoint secondary profiling version for purified Fab.

Data set [4] can be described thus: HTRF HTS of periplasmic scFv, Assay 3 versus Assay 1. As to conditions: 30 nM biotinylated ticagrelor, 50-fold excess (1500 nM) unmodified ticagrelor. The class given is binding. From the text: Using known techniques, a human scFv phage display library was used to generate scFv antibodies, and specific scFvs were isolated from the library in a series of repeated selection cycles on biotinylated ticagrelor with deselection on biotinylated adenosine, essentially as described in Lloyd et al 2009 PEDS 22: 159-168, incorporated herein by reference. A number of individual clones from the round 2 and round 3 selection outputs were selected, seFvs were expressed in the bacterial periplasm and screened for specificity in three parallel biochemical assays. […]
Assays 1, 2, and 3 were performed using the same general techniques and strategy. […] HTRF® (homogeneous time resolved fluorescence) is based upon the principle of TR-FRET (time resolved fluorescence resonance energy transfer). […] Provided the donor and acceptor fluorophores are in sufficiently close proximity (approx. <10 nm), the excitation of the Europium cryptate donor (337 nm) results in a transfer of energy to the XL^665 acceptor which in turn emits a fluorescence signal at 665 nm. […]
Raw 665 nm and 620 nm counts were first converted into 665 nm/620 nm ratio values and subsequently results were expressed as Delta F (%) values. Delta F was calculated according to the following equation: Delta F (%)={((sample 665/620 ratio)−(negative 665/620) ratio))/(negative 665/620 ratio)}×100 […]

Regarding `CCCSc1nc(N[C@@H]2C[C@H]2c2ccc(F)c(F)c2)c2nnn([C@@H]3C[C@H](O)[C@@H](O)[C@H]3O)c2n1` [TAM], the IC50 (usually the concentration at which inhibition is half-maximal) at TICA0010 Fab was determined as 0.124 µM; at TICA0049 Fab, 0.366 µM; on TICA0053 Fab it was 0.134 µM; on TICA0072 Fab it was 0.483 µM; at TICA0162 Fab, 0.032 µM; on TICA0212 Fab, 0.031 µM. In data set [1] (end of ticagrelor infusion 300 μg/kg/min 20 min, mice), the “mean total plasma concentration” value was determined as 0.3 µM. Moreover, in data set [1] (vehicle treated mice, t=30 minutes), the “mean total plasma concentration at time of tail cut” value was 0.6 µM. Also, in [2] (human, in vivo), the circulating half-life is 12 h. Also, the “concentration as % of the parent ticagrelor concentration” value in data set [2] (patients on BRILINTA/BRILIQUE) is on record as 30-40%. In addition, at P2Y12, the P2Y12 antagonist activity entry was “equally effective”.

B1: TICA0072: parent anti-ticagrelor/TAM antibody; VH SEQ ID NO:32, VL SEQ ID NO:37 (antibody, listed as Homo sapiens, V domains shown)
VH: QVQLQESGAEVKKPGSSVRVSCKASGGTFDSYSIHWVRQAPGQGLEWMGGIIPAFGTLSSAQDFQARVTISADKSTSTAYMELSGLRSEDTAVYYCARGSHLYDFWSASHPPNDALAIWGQGTLVTVSS
VL: QSVVTQPPSVSAAPGQKVTISCSGSNSDIGNNYVSWYQQLPGTAPKLLIYDNNKRPSGIPDRFSGSKSGTSATLAITGLQAGDEADYYCGTWDISLSAGLFGGGTKVTVL
Molecule B1 returned an IC50 in [3] (Fab, 16 nM TICA0159 IgG, 1 nM biotinylated ticagrelor) of 1.71 µM. Besides, the “Fold Improved” value in [3] (IC50 relative to parent TICA0072 Fab) was determined as 0. For the same molecule, in data set [4], the “% inhibition of binding observed in Assay 3 versus Assay 1” value was greater than 90%.
